According to patent US6608082B1, “Treatment of erectile dysfunction using isoquinoline compound melanocortin receptor ligands” (Lion Bioscience AG, priority 1998, dated 2003):
Read-outs that look alike come from different tables or passages of the source. One block for each compound: values may come before it.

Legend:
MCR-1 = target: T1, MCR-1 (Homo sapiens, UniProt Q01726); assay: Melanocortin receptor binding assay, competition with 125I-HP 467, HEK 293 cells expressing hMCR-1; conditions: for IC50: read-out: MC-1 IC50; for % Disp. MC-1 10 μM: displacement of 125I-HP 467 at 10 μM isoquinoline compound
T1 construct: expressed in transfected cells; host or cells: HEK 293
In short: (§1)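 Intact-cell competition binding, 2.5 hr at 37 °C, in PBS/10% calf serum/1 mM CaCl2; hMCR-4 cells at 4×10^3 per tube, hMCR-1 cells at 2×10^4 per tube. Filtration on BSA/CaCl2-soaked GF/B, cold 50 mM Tris pH 7.4 washes, scintillation count.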

MCR-4 = target: T2, MCR-4 (Homo sapiens, UniProt P32245); assay: Melanocortin receptor binding assay, competition with 125I-HP 467, HEK 293 cells expressing hMCR-4; conditions: for IC50: read-out: MC-4 IC50
T2 construct: expressed in transfected cells; host or cells: HEK 293
In short: as §1

[1] = inhibition of binding of 125I-HP 467, HEK 293 cells expressing MCR-1, TRG 2414 library
[2] = inhibition of binding of 125I-HP 467, HEK 293 cells expressing MCR-4, TRG 2414 library
[3] = TRG 2408 and TRG 2409 libraries, inhibition of 125I-HP 467 binding
[4] = TRG 2414 library, inhibition of binding of 125I-HP 467, HEK 293 cells expressing MCR-1
[5] = TRG 2414 library, inhibition of binding of 125I-HP 467, HEK 293 cells expressing MCR-4
[6] = TRG 2406 and TRG 2407 libraries, inhibition of binding of 125I-HP 467
[7] = inhibition of binding of 125I-HP 467, HEK 293 cells expressing MCR-1
[8] = inhibition of binding of 125I-HP 467, HEK 293 cells expressing MCR-4

T2 sequence (P32245 whole entry): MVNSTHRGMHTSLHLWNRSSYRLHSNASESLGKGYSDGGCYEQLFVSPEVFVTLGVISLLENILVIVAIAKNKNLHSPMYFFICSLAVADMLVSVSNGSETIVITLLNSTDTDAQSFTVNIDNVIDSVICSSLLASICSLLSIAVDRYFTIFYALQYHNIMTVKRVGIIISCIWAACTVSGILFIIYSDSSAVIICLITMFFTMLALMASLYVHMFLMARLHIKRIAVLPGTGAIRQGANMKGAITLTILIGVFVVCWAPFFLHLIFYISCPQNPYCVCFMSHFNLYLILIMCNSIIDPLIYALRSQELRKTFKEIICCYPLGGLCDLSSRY
T1 sequence (Q01726 whole entry): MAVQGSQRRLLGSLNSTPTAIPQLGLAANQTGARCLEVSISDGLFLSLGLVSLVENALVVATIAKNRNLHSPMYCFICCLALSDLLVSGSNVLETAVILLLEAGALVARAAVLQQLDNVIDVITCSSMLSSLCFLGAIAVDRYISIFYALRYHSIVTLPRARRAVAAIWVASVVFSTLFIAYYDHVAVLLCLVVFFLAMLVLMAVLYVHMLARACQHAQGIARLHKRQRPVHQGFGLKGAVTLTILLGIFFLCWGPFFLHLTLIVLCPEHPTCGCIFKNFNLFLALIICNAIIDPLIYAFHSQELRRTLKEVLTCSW

IC50 (MCR-1; competition with 125I-HP 467, HEK 293 cells expressing MCR-1): 1.26 µM
IC50 (MCR-4; competition with 125I-HP 467, HEK 293 cells expressing MCR-4): 1.19 µM
Structure (SMILES): CCCCNC(CN)CCCN1Cc2ccccc2C(CN)C1c1ccc(-c2ccccc2)cc1 (stereo not drawn) [TRG 2411-147]

IC50 (MCR-1; [1]): 25.5 µM
IC50 (MCR-4; [2]): 37.5 µM
Structure (SMILES): COc1ccc(CNCC2c3ccccc3CN(CCCCC(CN)NCC(C)c3ccc(CC(C)C)cc3)C2c2ccc(Cl)cc2Cl)cc1 (stereo not drawn) [TRG 2414-24]

IC50 (MCR-1; [3]): 1.66 µM
IC50 (MCR-4; [3]): 31.8 µM
Structure (SMILES): CCNc1ccc(C2C(CNC3CCCCC3)c3ccccc3CN2CCCCC(N)CN)cc1 (stereo not drawn) [TRG 2408-5]

IC50 (MCR-1; [1]): 7.7 µM
IC50 (MCR-4; [2]): 1.55 µM
Structure (SMILES): COc1cccc(CNCC2c3ccccc3CN(CCCCC(N)CN)C2c2cc(C(F)(F)F)cc(C(F)(F)F)c2)c1 (stereo not drawn) [TRG 2414-57]

IC50 (MCR-1; [1]): 1.8 µM
IC50 (MCR-4; [2]): 3.48 µM
Structure (SMILES): COc1ccccc1CCNCC1c2ccccc2CN(CCCCC(CN)NCc2ccccc2)C1c1ccc(Cl)cc1Cl (mixture of isomers) [TRG 2414-11]

IC50 (MCR-1; [4]): 10.6 µM
IC50 (MCR-4; [5]): 8.22 µM
Structure (SMILES): COc1ccc(CNCC2c3ccccc3CN(CCCCC(CN)NCc3ccccc3)C2c2ccccc2Br)cc1 (stereo not drawn) [Cmpd 223]

IC50 (MCR-1; [6]): 5.83 µM
IC50 (MCR-4; [6]): 1.81 µM
Structure (SMILES): CNC(CN)CCCCN1Cc2ccccc2C(CNCc2cccc(OC)c2)C1c1ccc(Cl)cc1Cl (stereo not drawn) [TRG 2407-16]

Structure (SMILES): CCNc1ccc(C2C(CNCCc3ccccc3)c3ccccc3CN2CCC[C@@H](CN)NCCCCOc2ccccc2)cc1 (stereo partly drawn) [2424#5]
IC50 (MCR-1; [7]): 0.05 µM
IC50 (MCR-4; [8]): 1.51 µM

IC50 (MCR-1; [6]): 6.16 µM
IC50 (MCR-4; [6]): 3.41 µM
Structure (SMILES): COc1ccc(Oc2cccc(C3C(CNCc4ccccc4O)c4ccccc4CN3CCN)c2)cc1 (stereo not drawn) [TRG 2406-5]

IC50 (MCR-1; [6]): 7.86 µM
IC50 (MCR-4; [6]): 3.86 µM
Structure (SMILES): NCCN1Cc2ccccc2C(CNCc2ccccc2O)C1c1cccc(Oc2ccc(Cl)c(Cl)c2)c1 (stereo not drawn) [TRG 2406-2]

IC50 (MCR-1; [1]): 10.8 µM
IC50 (MCR-4; [2]): 9.87 µM
Structure (SMILES): NCC(N)CCCCN1Cc2ccccc2C(CNCc2ccccc2C(F)(F)F)C1c1cccc(Oc2ccccc2)c1 (mixture of isomers) [TRG 2414-81]

IC50 (MCR-1; [1]): 25 µM
MC-4 IC50 (MCR-4; [2]): no fit
Structure (SMILES): CCOc1ccccc1CNCC1c2ccccc2CN(CCCCC(CN)NCC(C)c2ccc(CC(C)C)cc2)C1c1ccc(Oc2ccccc2)cc1 (mixture of isomers) [TRG 2414-128]

IC50 (MCR-1; TRG 2405 section, inhibition of binding of 125I-HP 467, HEK 293 cells expressing MCR-1): 8.75 µM
% Disp. MC-1 10 μM (MCR-1; first of duplicate): 52%
% Disp. MC-1 10 μM (MCR-1; second of duplicate): 52.5%
IC50 (MCR-4; TRG 2405 section, inhibition of binding of 125I-HP 467, HEK 293 cells expressing MCR-4): 9.24 µM
Structure (SMILES): NCCN1Cc2ccccc2C(CNC2CCCCC2)C1c1cc(C(F)(F)F)cc(C(F)(F)F)c1 (stereo not drawn) [TRG 2405-28]

IC50 (MCR-1; [1]): 4.3 µM
IC50 (MCR-4; [2]): 5.42 µM
Structure (SMILES): CCCOc1ccc(C2C(CNCCc3cccc(Cl)c3)c3ccccc3CN2CCCCC(CN)NCCc2ccccc2)cc1 (mixture of isomers) [TRG 2414-174]

IC50 (MCR-1; [6]): 2.16 µM
IC50 (MCR-4; [6]): 13.5 µM
Structure (SMILES): CCNc1ccc(C2C(CN(C)Cc3ccccc3)c3ccccc3CN2CCCCC(CN)NC)cc1 (stereo not drawn) [TRG 2407-51]

IC50 (MCR-1; [4]): 48.3 µM
IC50 (MCR-4; [5]): 39 µM
Structure (SMILES): CC(C)Cc1ccc(C(C)CNC(CN)CCCCN2Cc3ccccc3C(CNCCc3cccc(Cl)c3)C2c2ccccc2Br)cc1 (stereo not drawn) [Cmpd 216]

IC50 (MCR-1; [7]): 0.08 µM
IC50 (MCR-4; [8]): 0.59 µM
Structure (SMILES): CCCCNC(CN)CCCN1Cc2ccccc2C(CNCCc2ccccc2)C1c1ccc(NCC)cc1 (stereo not drawn) [TRG 2411-153]

MC-1 IC50 (MCR-1; [4]): no fit
MC-4 IC50 (MCR-4; [5]): no fit
Structure (SMILES): COc1ccccc1CCNCC1c2ccccc2CN(CCCCC(N)CN)C1c1ccc(Cl)cc1Cl (stereo not drawn) [Cmpd 241]

IC50 (MCR-1; [1]): 2.86 µM
IC50 (MCR-4; [2]): 2.69 µM
Structure (SMILES): NCC(N)CCCCN1Cc2ccccc2C(CNCc2ccccc2)C1c1ccc(Oc2ccccc2)cc1 (stereo not drawn) [TRG 2414-149]

IC50 (MCR-1; [7]): 0.31 µM
IC50 (MCR-4; [8]): 0.32 µM
Structure (SMILES): CCOc1ccc(C2C(CNCCc3ccccc3)c3ccccc3CN2CCCCC(CN)NC)cc1 (stereo not drawn) [TRG 2412-4]

IC50 (MCR-1; [7]): 2.57 µM
IC50 (MCR-4; [8]): 2.55 µM
Structure (SMILES): CCCOc1ccc(C2C(CO)c3ccccc3CN2CCCC(CN)NCCC2CCCCC2)cc1 (mixture of isomers) [TRG 2415-4]

IC50 (MCR-1; [3]): 4.51 µM
IC50 (MCR-4; [3]): 1.54 µM
Structure (SMILES): CCNc1ccc(C2C(CNC3CCCCC3)c3ccccc3CN2CCC(CN)NCCc2ccccc2)cc1 (stereo not drawn) [TRG 2408-92]

IC50 (MCR-1; [1]): 12.9 µM
IC50 (MCR-4; [2]): 10 µM
Structure (SMILES): COc1ccc(CCNCC2c3ccccc3CN(CCCCC(CN)NCCc3ccccc3)C2c2cccc(Oc3ccccc3)c2)cc1 (stereo not drawn) [TRG 2414-106]
